Assay results from patent US4661502A (priority 1983, dated 1987).

Key:
[1] = tested on: Hypercholesterolemic Rats; design: species or system Wistar rats; conditions: rat, in vivo
male Wistar rats = conditions: rat, in vivo

CN(C)C(=O)Oc1cccc([N+](C)(C)C)c1 [Neostigmine bromide]
LDL-cholesterol [1]: 76.6 ± 10.7 mg % | Total cholesterol [1]: 131.2 ± 11.8 mg % | Acute toxicity: state of the rats after administration (male Wistar rats): all the rats were dead
